Experimental findings from patent US20230365592A1 (Agios Pharmaceuticals, Inc., priority 2022, published 2023) are described below.

Structures are written as SMILES.

One test deals with T1, human PAH with the R408W mutation (Homo sapiens, UniProt P00439, R408W).
T1 construct: expressed in transfected cells
T1 sequence (P00439 1-452 R408W): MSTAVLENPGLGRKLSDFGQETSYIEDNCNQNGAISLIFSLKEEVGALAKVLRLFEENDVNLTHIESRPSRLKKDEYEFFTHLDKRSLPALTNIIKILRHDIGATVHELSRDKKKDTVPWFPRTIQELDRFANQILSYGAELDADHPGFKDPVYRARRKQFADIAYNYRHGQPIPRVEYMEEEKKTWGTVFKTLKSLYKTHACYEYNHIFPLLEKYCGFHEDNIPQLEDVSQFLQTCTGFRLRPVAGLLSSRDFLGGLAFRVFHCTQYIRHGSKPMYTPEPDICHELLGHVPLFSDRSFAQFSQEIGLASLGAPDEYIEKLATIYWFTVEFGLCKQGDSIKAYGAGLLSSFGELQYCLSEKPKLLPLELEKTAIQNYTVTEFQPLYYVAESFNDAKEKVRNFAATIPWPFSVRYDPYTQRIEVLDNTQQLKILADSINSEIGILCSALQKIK
Nature of the test: Cell Based Phenylalanine Flux Assay.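 Note: after compound treatment, cells received sepiapterin plus isotope-labelled Phenylalanine for 4 hours, then labelled Tyrosine in the medium was quantified, 10-point 2-fold dilution series run in duplicate.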 As to conditions: A375 cells expressing R408W PAH; 24 hrs with compound, then 20 µM sepiapterin and 800 µM 13C9,15N-Phenylalanine for 4 hours; 13C-Tyrosine by LC-MS; average where tested multiple times; read-out: AC50.
By AC50 is commonly meant the concentration at which the activity in the assay is half-maximal. Turning to `O=C(c1nnc(C2CC(F)(F)C2)o1)N1CCc2[nH]cnc2C1c1cc2cccc(Cl)n2n1` (stereo not shown), the concentration at half-maximal activity (AC50) fell in the range of 1 to 5 µM.

For `Cc1nnc(C(=O)N2CCc3[nH]cnc3C2c2cc3cccc(F)n3n2)o1` (stereo not shown), the AC50 was 1 to 5 µM.

In the case of `CN(C)Cc1ccc2c(C(=O)N3CCc4[nH]cnc4C3c3cc4cccc(C(F)(F)F)n4n3)cnn2c1` (stereo not shown), the AC50 lay within 1 to 5 µM.

On to `CC(C)(C)c1nnc(N2CCc3[nH]cnc3C2c2cc3cccc(Cl)n3n2)o1` (stereo not shown), for which the half-maximal activity concentration (AC50) was greater than 5 µM.

Take `COCc1ccc2c(C(=O)N3CCc4[nH]cnc4C3c3cc4cccc(Cl)n4n3)cnn2c1` (stereo not shown): the AC50 is greater than 5 µM.

Still in this test, the particulars now being: A375 cells expressing human PAH R408W; 24 hrs compound incubation; 13C-Tyrosine by LC-MS; average where tested multiple times; read-out: AC50.
On to `FC(F)(F)c1ccc(N2CCc3[nH]cnc3[C@@H]2c2cc3c(C4CC4)cccn3n2)nc1` [Example 2171, (R)-4-(4-cyclopropylpyrazolo[1,5-a]pyridin-2-yl)-5-(5-(trifluoromethyl)pyridin-2-yl)-4,5,6,7-tetrahydro-1H-imidazo[4,5-c]pyridine], for which the AC50 was greater than 5 µM.

As for `Cn1nc(C(F)(F)F)nc1C(=O)N1CCc2[nH]cnc2[C@H]1c1cc2c(F)cccn2n1` [Example 2398, (S)-(4-(4-fluoropyrazolo[1,5-a]pyridin-2-yl)-6,7-dihydro-1H-imidazo[4,5-c]pyridin-5(4H)-yl)(1-methyl-3-(trifluoromethyl)-1H-1,2,4-triazol-5-yl)methanone], the AC50 was in the range of 1 to 5 µM.

Turning to `O=C(c1nnc(-c2ccn(C(F)F)n2)o1)N1CCc2[nH]cnc2[C@H]1c1cc2c(C3CC3)cccn2n1` [Example 1930, (S)-(4-(4-cyclopropylpyrazolo[1,5-a]pyridin-2-yl)-1,4,6,7-tetrahydro-5H-imidazo[4,5-c]pyridin-5-yl)(5-(1-(difluoromethyl)-1H-pyrazol-3-yl)-1,3,4-oxadiazol-2-yl)methanone], the AC50 is less than 0.5 µM.

For the molecule `O=C(c1cnc(-c2cnccn2)o1)N1CCc2[nH]cnc2[C@H]1c1cc2c(F)cccn2n1` [Example 2516, (S)-(4-(4-fluoropyrazolo[1,5-a]pyridin-2-yl)-1,4,6,7-tetrahydro-5H-imidazo[4,5-c]pyridin-5-yl)(2-(pyrazin-2-yl)oxazol-5-yl)methanone], the concentration at half-maximal activity (AC50) lay within 1 to 5 µM.

Take `Cc1cccn2nc([C@H]3c4nc[nH]c4CCN3C(=O)c3cnc(-c4ccccn4)o3)cc12` [Example 1965, (R)-(4-(4-methylpyrazolo[1,5-a]pyridin-2-yl)-1,4,6,7-tetrahydro-5H-imidazo[4,5-c]pyridin-5-yl)(2-(pyridin-2-yl)oxazol-5-yl)methanone]: the half-maximal activity concentration (AC50) is greater than 5 µM.

For the molecule `Cc1cccn2nc([C@@H]3c4nc[nH]c4CCN3C(=O)c3oc(-c4cnn(C)c4)nc3C3CC3)cc12` [Example 2074], the half-maximal activity concentration (AC50) is less than 0.5 µM.

Turning to `Cc1nnc(C(=O)N2CCc3[nH]cnc3[C@H]2c2cc3c(C)cccn3n2)s1` [Example 2501, (S)-(5-methyl-1,3,4-thiadiazol-2-yl)(4-(4-methylpyrazolo[1,5-a]pyridin-2-yl)-1,4,6,7-tetrahydro-5H-imidazo[4,5-c]pyridin-5-yl)methanone], the concentration at half-maximal activity (AC50) lay in the range of 1 to 5 µM.

As to `FC(F)(F)c1cccc2cc([C@@H]3c4nc[nH]c4CCN3c3nnc(-c4ccccn4)o3)nn12` [Example 2440, (S)-2-(pyridin-2-yl)-5-(4-(7-(trifluoromethyl)pyrazolo[1,5-a]pyridin-2-yl)-6,7-dihydro-1H-imidazo[4,5-c]pyridin-5(4H)-yl)-1,3,4-oxadiazole], the AC50 lay within 1 to 5 µM.

Still in this test, the particulars now being: A375 cells expressing human R408W PAH; 24 hrs compound incubation; 13C-Tyrosine by LC-MS; average where tested multiple times; read-out: AC50.
On to `O=C(c1ocnc1C(F)F)N1CCc2[nH]cnc2[C@@H]1c1cc2c(F)cccn2n1` [Example 759, (R)-(4-(difluoromethyl)oxazol-5-yl)(4-(4-fluoropyrazolo[1,5-a]pyridin-2-yl)-6,7-dihydro-1H-imidazo[4,5-c]pyridin-5(4H)-yl)methanone], for which the concentration at half-maximal activity (AC50) lay within 1 to 5 µM.

In the case of `O=C(c1ocnc1C(F)(F)F)N1CCc2[nH]cnc2[C@H]1c1cc2ccccn2n1` [Example 610, (S)-(4-(pyrazolo[1,5-a]pyridin-2-yl)-6,7-dihydro-1H-imidazo[4,5-c]pyridin-5(4H)-yl)(4-(trifluoromethyl)oxazol-5-yl)methanone], the AC50 was less than 0.5 µM.

Regarding `Cc1nnc(C(=O)N2CCc3[nH]cnc3[C@H]2c2cc3c(C)cccn3n2)o1` [Example 1010, (S)-(5-methyl-1,3,4-oxadiazol-2-yl)(4-(4-methylpyrazolo[1,5-a]pyridin-2-yl)-6,7-dihydro-1H-imidazo[4,5-c)pyridin-5(4H)-yl)methanone], the AC50 was 0.5 to 1 µM.

Turning to `O=C(c1nnc(-c2ncccc2F)o1)N1CCc2[nH]cnc2[C@@H]1c1cc2c(OC(F)(F)F)cccn2n1` [Example 1678, (R)-(5-(3-fluoropyridin-2-yl)-1,3,4-oxadiazol-2-yl)(4-(4-(trifluoromethoxy)pyrazolo[1,5-a]pyridin-2-yl)-6,7-dihydro-1H-imidazo[4,5-c]pyridin-5(4H)-yl)methanone], the AC50 is greater than 5 µM.

`O=C(c1oc(C2(O)CC2)nc1C(F)F)N1CCc2[nH]cnc2[C@@H]1c1cc2cccc(Cl)n2n1` [Example 1237, (R)-(4-(7-chloropyrazolo[1,5-a]pyridin-2-yl)-6,7-dihydro-1H-imidazo[4,5-c]pyridin-5(4H)-yl)(4-(difluoromethyl)-2-(1-hydroxycyclopropyl)oxazol-5-yl)methanone]: the half-maximal activity concentration (AC50) fell in the range of 1 to 5 µM.

As for `O=C(c1nnc(-c2ccn(C(F)(F)F)n2)o1)N1CCc2[nH]cnc2[C@H]1c1cc2c(OC(F)F)cccn2n1` [Example 1708, (S)-(4-(4-(difluoromethoxy)pyrazolo[1,5-a]pyridin-2-yl)-6,7-dihydro-1H-imidazo[4,5-c]pyridin-5(4H)-yl)(5-(1-(trifluoromethyl)-1H-pyrazol-3-yl)-1,3,4-oxadiazol-2-yl)methanone], the concentration at half-maximal activity (AC50) was in the range of 0.5 to 1 µM.

As for `Cc1ccc2cc([C@@H]3c4nc[nH]c4CCN3C(=O)c3nnc(-c4ccn(C)n4)o3)nn2c1` [Example 814, (S)-(5-(1-methyl-1H-pyrazol-3-yl)-1,3,4-oxadiazol-2-yl)(4-(6-methylpyrazolo[1,5-a]pyridin-2-yl)-6,7-dihydro-1H-imidazo[4,5-c]pyridin-5(4H)-yl)methanone], the AC50 was less than 0.5 µM.

With `Cc1cccc(-c2nnc(C(=O)N3CCc4[nH]cnc4[C@H]3c3cc4c(F)cccn4n3)o2)n1` [Example 1470, (S)-(4-(4-fluoropyrazolo[1,5-a]pyridin-2-yl)-6,7-dihydro-1H-imidazo[4,5-c]pyridin-5(4H)-yl)(5-(6-methylpyridin-2-yl)-1,3,4-oxadiazol-2-yl)methanone], the AC50 was less than 0.5 µM.

Regarding `O=C(c1nnc(-c2ccn(C(F)(F)F)n2)o1)N1CCc2[nH]cnc2[C@@H]1c1cc2cccc(C(F)F)n2n1` [Example 1545, (R)-(4-(7-(difluoromethyl)pyrazolo[1,5-a]pyridin-2-yl)-6,7-dihydro-1H-imidazo[4,5-c]pyridin-5(4H)-yl)(5-(1-(trifluoromethyl)-1H-pyrazol-3-yl)-1,3,4-oxadiazol-2-yl)methanone], the AC50 lay within 1 to 5 µM.

As for `O=C(c1nnc(-c2ncccc2F)o1)N1CCc2[nH]cnc2[C@@H]1c1cc2cccc(C(F)F)n2n1` [Example 1581, (R)-(4-(7-(difluoromethyl)pyrazolo[1,5-a]pyridin-2-yl)-6,7-dihydro-1H-imidazo[4,5-c]pyridin-5(4H)-yl)(5-(3-fluoropyridin-2-yl)-1,3,4-oxadiazol-2-yl)methanone], the concentration at half-maximal activity (AC50) is greater than 5 µM.

Turning to `Cc1ncccc1-c1nnc(C(=O)N2CCc3[nH]cnc3[C@@H]2c2cc3c(C(F)F)cccn3n2)o1` [Example 1395, (R)-(4-(4-(difluoromethyl)pyrazolo[1,5-a]pyridin-2-yl)-6,7-dihydro-1H-imidazo[4,5-c]pyridin-5(4H)-yl)(5-(2-methylpyridin-3-yl)-1,3,4-oxadiazol-2-yl)methanone], the AC50 is greater than 5 µM.

`O=C(c1nnc(C2CC2)o1)N1CCc2[nH]cnc2[C@@H]1c1cc2c(C(F)F)cccn2n1` [Example 981, (R)-(5-cyclopropyl-1,3,4-oxadiazol-2-yl)(4-(4-(difluoromethyl)pyrazolo[1,5-a]pyridin-2-yl)-6,7-dihydro-1H-imidazo[4,5-c]pyridin-5(4H)-yl)methanone]: the half-maximal activity concentration (AC50) lay within 1 to 5 µM.

For `Cn1cnc(-c2nnc(C(=O)N3CCc4[nH]cnc4[C@H]3c3cc4cccc(C(F)(F)F)n4n3)o2)c1` [Example 1032, (S)-(5-(1-methyl-1H-imidazol-4-yl)-1,3,4-oxadiazol-2-yl)(4-(7-(trifluoromethyl)pyrazolo[1,5-a]pyridin-2-yl)-6,7-dihydro-1H-imidazo(4,5-c]pyridin-5(4H)-yl)methanone], the AC50 lay within 0.5 to 1 µM.

In the case of `Cc1cnn(C)c1-c1nnc(C(=O)N2CCc3[nH]cnc3[C@H]2c2cc3cccc(F)n3n2)o1` [Example 1528, (S)-(5-(1,4-dimethyl-1H-pyrazol-5-yl)-1,3,4-oxadiazol-2-yl)(4-(7-fluoropyrazolo[1,5-a]pyridin-2-yl)-6,7-dihydro-1H-imidazo[4,5-c]pyridin-5(4H)-yl)methanone], the AC50 was less than 0.5 µM.

As for `O=C(c1oc(C2(O)CC2)nc1C(F)F)N1CCc2[nH]cnc2[C@H]1c1cc2c(F)cccn2n1` [Example 1234, (S)-(4-(difluoromethyl)-2-(1-hydroxycyclopropyl)oxazol-5-yl)(4-(4-fluoropyrazolo[1,5-a]pyridin-2-yl)-6,7-dihydro-1H-imidazo[4,5-c]pyridin-5(4H)-yl)methanone], the half-maximal activity concentration (AC50) is less than 0.5 µM.
